Source: PubChem BioAssay (NCI)
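Step 1: Grow cells in 96-well plates. Step 2: Expose to compound for 48 hours at 5 concentrations. Step 3: Interpolate endpoints linearly; if unreached, use highest concentration. Definition used: TGI = concentration required for complete inhibition of growth.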

Legend:
Experiment in all cases: NCI anticancer screen, dose series, 48 h
HT29 colon = test system: HT29 colon
EKVX NSCLC = test system: EKVX NSCLC
CCRF-CEM leukemia = test system: CCRF-CEM leukemia
HOP-92 NSCLC = test system: HOP-92 NSCLC
M14 melanoma = test system: M14 melanoma
SK-MEL-28 melanoma = test system: SK-MEL-28 melanoma
HCT-15 colon = test system: HCT-15 colon
T-47D breast = test system: T-47D breast
U251 CNS = test system: U251 CNS
NCI/ADR-RES ovarian = test system: NCI/ADR-RES ovarian
CAKI-1 renal = test system: CAKI-1 renal
HS 578T breast = test system: HS 578T breast
A549 NSCLC = test system: A549 NSCLC
IGROV1 ovarian = test system: IGROV1 ovarian
NCI-H23 lung = test system: NCI-H23 lung
NCI-H522 lung = test system: NCI-H522 lung
MDA-N = test system: MDA-N
OVCAR-4 ovarian = test system: OVCAR-4 ovarian
SW-620 colon = test system: SW-620 colon
SNB-19 CNS = test system: SNB-19 CNS
MDA-MB-231 breast = test system: MDA-MB-231 breast
PC-3 prostate = test system: PC-3 prostate
SN12C renal = test system: SN12C renal
COLO 205 colon = test system: COLO 205 colon
MALME-3M melanoma = test system: MALME-3M melanoma
RXF 393 renal = test system: RXF 393 renal
OVCAR-8 ovarian = test system: OVCAR-8 ovarian
NCI-H226 lung = test system: NCI-H226 lung
NCI-H460 lung = test system: NCI-H460 lung
HL-60(TB) leukemia = test system: HL-60(TB) leukemia
RPMI-8226 leukemia = test system: RPMI-8226 leukemia
SK-MEL-2 melanoma = test system: SK-MEL-2 melanoma
SF-268 CNS = test system: SF-268 CNS
ACHN renal = test system: ACHN renal
UACC-62 melanoma = test system: UACC-62 melanoma
SF-295 CNS = test system: SF-295 CNS
SK-MEL-5 melanoma = test system: SK-MEL-5 melanoma
HOP-62 NSCLC = test system: HOP-62 NSCLC
UACC-257 melanoma = test system: UACC-257 melanoma
MOLT-4 leukemia = test system: MOLT-4 leukemia
MDA-MB-435 = test system: MDA-MB-435
LOX IMVI melanoma = test system: LOX IMVI melanoma
BT-549 breast = test system: BT-549 breast
K-562 leukemia = test system: K-562 leukemia
HCC-2998 colon = test system: HCC-2998 colon
SK-OV-3 ovarian = test system: SK-OV-3 ovarian
SF-539 CNS = test system: SF-539 CNS
KM12 colon = test system: KM12 colon
HCT-116 colon = test system: HCT-116 colon
MCF7 breast = test system: MCF7 breast
OVCAR-3 ovarian = test system: OVCAR-3 ovarian
OVCAR-5 ovarian = test system: OVCAR-5 ovarian
786-0 renal = test system: 786-0 renal
UO-31 renal = test system: UO-31 renal
TK-10 renal = test system: TK-10 renal
SR leukemia = test system: SR leukemia
DU-145 prostate = test system: DU-145 prostate

In the case of `COc1ccc(C2SC(N)=Nc3c2c(C)nn3C(=O)c2ccccc2O)cc1` (stereo not given), the TGI (HT29 colon) is reported as greater than 10 µM, the TGI (EKVX NSCLC) is reported as greater than 10 µM and the TGI (CCRF-CEM leukemia) is reported as greater than 10 µM. For the same compound, the TGI (HOP-92 NSCLC) was greater than 10 µM, the TGI (M14 melanoma) was greater than 10 µM and the TGI (SK-MEL-28 melanoma) was greater than 10 µM. For the same compound, the TGI (HCT-15 colon) was greater than 10 µM, the TGI (T-47D breast) was greater than 10 µM and the TGI (U251 CNS) was greater than 10 µM. The TGI (NCI/ADR-RES ovarian) was greater than 10 µM, the TGI (CAKI-1 renal) was greater than 10 µM and the TGI (HS 578T breast) was greater than 10 µM. For the same compound, the TGI (A549 NSCLC) was greater than 10 µM, the TGI (IGROV1 ovarian) was greater than 10 µM and the TGI (NCI-H23 lung) was greater than 10 µM. It also gave a TGI (NCI-H522 lung) greater than 10 µM, a TGI (MDA-N) greater than 10 µM and a TGI (OVCAR-4 ovarian) greater than 10 µM. It also gave a TGI (SW-620 colon) greater than 10 µM, a TGI (SNB-19 CNS) greater than 10 µM and a TGI (MDA-MB-231 breast) of 9.79 µM. For the same compound, the TGI (PC-3 prostate) was greater than 10 µM, the TGI (SN12C renal) was greater than 10 µM and the TGI (COLO 205 colon) was greater than 10 µM. It also gave a TGI (MALME-3M melanoma) greater than 10 µM, a TGI (RXF 393 renal) greater than 10 µM and a TGI (OVCAR-8 ovarian) greater than 10 µM. For the same compound, the TGI (NCI-H226 lung) was greater than 10 µM, the TGI (NCI-H460 lung) was greater than 10 µM and the TGI (HL-60(TB) leukemia) was 5.21 µM. The TGI (RPMI-8226 leukemia) was 6.99 µM, the TGI (SK-MEL-2 melanoma) was greater than 10 µM and the TGI (SF-268 CNS) was greater than 10 µM. For the same compound, the TGI (ACHN renal) was greater than 10 µM, the TGI (UACC-62 melanoma) was greater than 10 µM and the TGI (SF-295 CNS) was greater than 10 µM. The TGI (SK-MEL-5 melanoma) was greater than 10 µM, the TGI (HOP-62 NSCLC) was greater than 10 µM and the TGI (UACC-257 melanoma) was greater than 10 µM. For the same compound, the TGI (MOLT-4 leukemia) was greater than 10 µM, the TGI (MDA-MB-435) was greater than 10 µM and the TGI (LOX IMVI melanoma) was greater than 10 µM. It also gave a TGI (BT-549 breast) greater than 10 µM, a TGI (K-562 leukemia) of 3.85 µM and a TGI (HCC-2998 colon) greater than 10 µM. For the same compound, the TGI (SK-OV-3 ovarian) was greater than 10 µM, the TGI (SF-539 CNS) was 0.628 µM and the TGI (KM12 colon) was greater than 10 µM. For the same compound, the TGI (HCT-116 colon) was greater than 10 µM, the TGI (MCF7 breast) was greater than 10 µM and the TGI (OVCAR-3 ovarian) was 7.48 µM. It also gave a TGI (OVCAR-5 ovarian) greater than 10 µM and a TGI (786-0 renal) greater than 10 µM.

`CC1=CC(O)(c2ccccc2)C(N2CCOCC2)N1O` (stereo not given) gave a TGI (HT29 colon) greater than 100 µM, a TGI (EKVX NSCLC) greater than 100 µM and a TGI (CCRF-CEM leukemia) greater than 100 µM. The TGI (M14 melanoma) was greater than 100 µM, the TGI (SK-MEL-28 melanoma) was greater than 100 µM and the TGI (HCT-15 colon) was greater than 100 µM. It also gave a TGI (T-47D breast) greater than 100 µM, a TGI (U251 CNS) greater than 100 µM and a TGI (NCI/ADR-RES ovarian) greater than 100 µM. For the same compound, the TGI (CAKI-1 renal) was greater than 100 µM, the TGI (HS 578T breast) was greater than 100 µM and the TGI (A549 NSCLC) was greater than 100 µM. For the same compound, the TGI (IGROV1 ovarian) was greater than 100 µM, the TGI (NCI-H23 lung) was greater than 100 µM and the TGI (NCI-H522 lung) was greater than 100 µM. For the same compound, the TGI (MDA-N) was greater than 100 µM, the TGI (OVCAR-4 ovarian) was greater than 100 µM and the TGI (SW-620 colon) was greater than 100 µM. It also gave a TGI (SNB-19 CNS) greater than 100 µM, a TGI (MDA-MB-231 breast) greater than 100 µM and a TGI (PC-3 prostate) greater than 100 µM. The TGI (SN12C renal) was greater than 100 µM, the TGI (COLO 205 colon) was greater than 100 µM and the TGI (MALME-3M melanoma) was greater than 100 µM. For the same compound, the TGI (UO-31 renal) was greater than 100 µM, the TGI (OVCAR-8 ovarian) was greater than 100 µM and the TGI (NCI-H226 lung) was greater than 100 µM. It also gave a TGI (NCI-H460 lung) greater than 100 µM, a TGI (RPMI-8226 leukemia) greater than 100 µM and a TGI (SK-MEL-2 melanoma) greater than 100 µM. It also gave a TGI (SF-268 CNS) greater than 100 µM, a TGI (ACHN renal) greater than 100 µM and a TGI (SF-295 CNS) greater than 100 µM. For the same compound, the TGI (SK-MEL-5 melanoma) was greater than 100 µM, the TGI (HOP-62 NSCLC) was greater than 100 µM and the TGI (UACC-257 melanoma) was greater than 100 µM. It also gave a TGI (TK-10 renal) greater than 100 µM, a TGI (MOLT-4 leukemia) greater than 100 µM and a TGI (SR leukemia) greater than 100 µM. It also gave a TGI (MDA-MB-435) greater than 100 µM, a TGI (LOX IMVI melanoma) greater than 100 µM and a TGI (BT-549 breast) greater than 100 µM. For the same compound, the TGI (K-562 leukemia) was greater than 100 µM, the TGI (HCC-2998 colon) was greater than 100 µM and the TGI (SK-OV-3 ovarian) was greater than 100 µM. The TGI (SF-539 CNS) was greater than 100 µM, the TGI (KM12 colon) was greater than 100 µM and the TGI (HCT-116 colon) was greater than 100 µM. The TGI (MCF7 breast) was greater than 100 µM, the TGI (OVCAR-3 ovarian) was greater than 100 µM and the TGI (OVCAR-5 ovarian) was greater than 100 µM. For the same compound, the TGI (786-0 renal) was greater than 100 µM.

With `CSC(SC)=C(C#N)C(=O)Nc1ccc(C)cc1` the TGI (HT29 colon) was greater than 100 µM, the TGI (EKVX NSCLC) was greater than 100 µM and the TGI (CCRF-CEM leukemia) was greater than 100 µM. It also gave a TGI (HOP-92 NSCLC) of 54.8 µM, a TGI (M14 melanoma) greater than 100 µM and a TGI (SK-MEL-28 melanoma) greater than 100 µM. For the same compound, the TGI (HCT-15 colon) was greater than 100 µM, the TGI (T-47D breast) was greater than 100 µM and the TGI (U251 CNS) was greater than 100 µM. It also gave a TGI (CAKI-1 renal) greater than 100 µM, a TGI (HS 578T breast) greater than 100 µM and a TGI (A549 NSCLC) greater than 100 µM. The TGI (IGROV1 ovarian) was greater than 100 µM, the TGI (NCI-H23 lung) was greater than 100 µM and the TGI (NCI-H522 lung) was greater than 100 µM. It also gave a TGI (MDA-N) greater than 100 µM, a TGI (OVCAR-4 ovarian) greater than 100 µM and a TGI (SW-620 colon) greater than 100 µM. For the same compound, the TGI (SNB-19 CNS) was greater than 100 µM, the TGI (MDA-MB-231 breast) was greater than 100 µM and the TGI (PC-3 prostate) was greater than 100 µM. The TGI (SN12C renal) was greater than 100 µM, the TGI (COLO 205 colon) was greater than 100 µM and the TGI (MALME-3M melanoma) was greater than 100 µM. It also gave a TGI (UO-31 renal) greater than 100 µM, a TGI (RXF 393 renal) greater than 100 µM and a TGI (NCI-H226 lung) greater than 100 µM. It also gave a TGI (NCI-H460 lung) greater than 100 µM, a TGI (HL-60(TB) leukemia) greater than 100 µM and a TGI (RPMI-8226 leukemia) greater than 100 µM. For the same compound, the TGI (SK-MEL-2 melanoma) was greater than 100 µM, the TGI (SF-268 CNS) was greater than 100 µM and the TGI (ACHN renal) was greater than 100 µM. It also gave a TGI (UACC-62 melanoma) greater than 100 µM, a TGI (SF-295 CNS) greater than 100 µM and a TGI (SK-MEL-5 melanoma) greater than 100 µM. It also gave a TGI (HOP-62 NSCLC) greater than 100 µM, a TGI (UACC-257 melanoma) greater than 100 µM and a TGI (DU-145 prostate) greater than 100 µM. It also gave a TGI (TK-10 renal) greater than 100 µM, a TGI (MOLT-4 leukemia) greater than 100 µM and a TGI (SR leukemia) greater than 100 µM. The TGI (MDA-MB-435) was greater than 100 µM, the TGI (LOX IMVI melanoma) was greater than 100 µM and the TGI (BT-549 breast) was greater than 100 µM. It also gave a TGI (K-562 leukemia) greater than 100 µM, a TGI (HCC-2998 colon) greater than 100 µM and a TGI (SK-OV-3 ovarian) greater than 100 µM. For the same compound, the TGI (SF-539 CNS) was greater than 100 µM, the TGI (KM12 colon) was greater than 100 µM and the TGI (HCT-116 colon) was greater than 100 µM. The TGI (MCF7 breast) was greater than 100 µM, the TGI (OVCAR-3 ovarian) was greater than 100 µM and the TGI (OVCAR-5 ovarian) was greater than 100 µM. It also gave a TGI (786-0 renal) greater than 100 µM.
